# Data from patent publication US11497761B2, “Compositions for the treatment of metastatic cancer” (priority 2019, dated 2022).
# Key:
# [1] = system: primary human T-cell signaling; conditions: in vitro, cited from earlier work
# [2] = system: iCTCs from prostate cancer patients; assay: iCTC drug response (CDR) testing ex vivo, Project 1 Study-Prostate Cancer; type: cell-based, human; conditions: for number of live iCTCs remaining after treatment: 72 hours
# Procedure: Materials for Project 1 Study-Prostate Cancer • Blood collection tubes: BD Vacutainer® 10 mL sodium heparin tube (BD catalog #367874)). • Vita-Assay™ AN6W plate. • Blood: prostate cancer, up to 40-mL blood was collected from patients and provided by Conversant bio. • Stock Solution and Dilutions • Monolaurin, 4.78 mM with 0.75% PS-80 (Stock Solution C), 13.1 mg monolaurin in 0.25 mL PS-80 and 0.75 mL water and 0.1 mL of this solution was diluted with 0.9 mL of RPMI. Stock solutions were stable for 2 weeks at 4 degrees C. Monolaurin used is an equal mixture of 1-, 2-, and 3-isomers of monolaurin. • Dilution: Monolaurin: Add 209.2 uL, 627.6 uL, and 1.2552 mL of CPI-2400 in 0.75% PS-80 (Stock solution C) and dilute to 10 mL of media to achieve final concentrations of 100 uM, 200 uM, and 300 uM final concentrations of drug cell exposure respectively.
# With respect to FIG. 1, a depiction of a generalized experimental scheme for testing efficacy of a composition in accordance with an exemplary embodiment of the present invention against iCTC from the blood of prostate cancer patients is shown. Invasive circulating tumor cells (iCTCs) were obtained from venous blood of the individual with advanced prostate cancer, cultured and exposed to a specific drug or battery of drugs at 1×, 2×, and 3× concentrations in vitro for 3 days. Drug responsiveness was measured by automatic flow cytometry using the reduction of live iCTCs in the treated samples from the number of live iCTCs in the untreated controls. The greater the reduction of iCTCs of a given drug at a given dose indicates greater responsiveness to that dose of the drug. Four AN6W plates were used for each sample. Control and drug at each dose in triplicate were incubated for 72 hours. The iCTCs were measured by flow cytometry and viewed by microscopy as described. The complete culture medium contains 10% fetal bovine serum.
# The complete experimental procedure for The Project 1 Study-Prostate Cancer followed the same procedure as that used with respect to The Project 1 Study-Pancreatic Cancer. With reference to FIGS. 5 and 6, flow cytometry evaluation: Count tumor cells and immune cells by using a 4-channel (FITC, PE, APC, and 7AAD) flow cytometer. iCTC is defined as: EPI^+TP^+CD45^−[…] • FIG. 5 depicts images of solitary and clustered iCTCs with specific markers in a cytospin preparation of the RP-19 sample. […] Pink arrows indicated iCTC clusters. A tumor cell was positively stained with green fluorescence-epithelial marker (GF-Epi), blue fluorescence nucleic acid dye (BF-Hoechst) and red fluorescence tumor progenitor (TP) marker (RF-TP). White arrows indicate WBCs that were not stained by Epi and TP tumor markers. Bar=40 μm. Cells from RP-19 were cultured for 3 days before staining.
# [3] = Stability of monolaurin stock solution; type: physicochemical; conditions: 4.78 mM with 0.75% PS-80 (Stock Solution C), 4 degrees C
# Procedure: Materials for Project 1 Study-Pancreatic Cancer • Blood collection tubes: BD Vacutainer® 10 mL sodium heparin tube (BD catalog #367874)). • Vita-Assay™ AN6W plate. • Blood: pancreatic cancer, up to 40-mL blood collected from patients and provided by Conversant Bio. • Stock solution and dilutions • Monolaurin 4.78 mM with 0.75% PS-80 (Stock Solution C), 13.1 mg monolaurin in 0.25 mL PS-80 and 0.75 mL water and 0.1 mL of this solution was diluted with 0.9 mL of RPMI. Stocks are stable for 2 weeks at 4 degrees C. Monolaurin used is an equal mixture of 1-, 2-, and 3-isomers of monolaurin. • Monolaurin dilution: add 209.2 uL, 627.6 uL, and 1.2552 mL of monolaurin in 0.75% PS-80 (Stock solution C), and dilute to 10 mL of media to achieve final concentrations of 100 uM, 200 uM, 300 uM as indicated.
# Materials for Project 1 Study-Prostate Cancer • Blood collection tubes: BD Vacutainer® 10 mL sodium heparin tube (BD catalog #367874)). • Vita-Assay™ AN6W plate. • Blood: prostate cancer, up to 40-mL blood was collected from patients and provided by Conversant bio. • Stock Solution and Dilutions • Monolaurin, 4.78 mM with 0.75% PS-80 (Stock Solution C), 13.1 mg monolaurin in 0.25 mL PS-80 and 0.75 mL water and 0.1 mL of this solution was diluted with 0.9 mL of RPMI. Stock solutions were stable for 2 weeks at 4 degrees C. […]
smiles,measurement,setting,value
"CCCCCCCCCCCC(=O)OCC(O)CO (centres unmarked) [Monolaurin, glycerol monolaurate]",concentration interfering with activated T cell adhesion and actin organization,[1]; formulated in 95% ethanol,10 to 20 µg/mL
same,concentration interfering with activated T cell adhesion and actin organization (equivalent),[1]; formulated in 95% ethanol,36 to 73 µM
same,concentrations inhibiting primary human T-cell signaling,[1],36 to 73 µM
same,kill rates of iCTCs (summary),[2]; iCTCs from prostate cancer patients,high kill rates
same,number of live iCTCs remaining after treatment,"[2]; patient RP02 (Taxotere), iCTC control 450, 100 uM monolaurin",0
same,number of live iCTCs remaining after treatment,"[2]; patient RP02 (Taxotere), iCTC control 450, 200 uM monolaurin",0
same,number of live iCTCs remaining after treatment,"[2]; patient RP02 (Taxotere), iCTC control 450, 300 uM monolaurin",0
same,number of live iCTCs remaining after treatment,"[2]; patient RP06 (Taxotere), iCTC control 40, 100 uM monolaurin",10
same,number of live iCTCs remaining after treatment,"[2]; patient RP06 (Taxotere), iCTC control 40, 200 uM monolaurin",0
same,number of live iCTCs remaining after treatment,"[2]; patient RP06 (Taxotere), iCTC control 40, 300 uM monolaurin",0
same,number of live iCTCs remaining after treatment,"[2]; patient RP07 (Taxotere), iCTC control 200, 100 uM monolaurin",0
same,number of live iCTCs remaining after treatment,"[2]; patient RP07 (Taxotere), iCTC control 200, 200 uM monolaurin",0
same,number of live iCTCs remaining after treatment,"[2]; patient RP07 (Taxotere), iCTC control 200, 300 uM monolaurin",0
same,number of live iCTCs remaining after treatment,"[2]; patient RP08 (Taxotere), iCTC control 60, 100 uM monolaurin",0
same,number of live iCTCs remaining after treatment,"[2]; patient RP08 (Taxotere), iCTC control 60, 200 uM monolaurin",0
same,number of live iCTCs remaining after treatment,"[2]; patient RP08 (Taxotere), iCTC control 60, 300 uM monolaurin",0
same,number of live iCTCs remaining after treatment,"[2]; patient RP09 (Taxotere), iCTC control 225, 100 uM monolaurin",0
same,number of live iCTCs remaining after treatment,"[2]; patient RP09 (Taxotere), iCTC control 225, 200 uM monolaurin",0
same,number of live iCTCs remaining after treatment,"[2]; patient RP09 (Taxotere), iCTC control 225, 300 uM monolaurin",0
same,number of live iCTCs remaining after treatment,"[2]; patient RP13 (Taxotere), iCTC control 75, 100 uM monolaurin",0
same,number of live iCTCs remaining after treatment,"[2]; patient RP13 (Taxotere), iCTC control 75, 200 uM monolaurin",0
same,number of live iCTCs remaining after treatment,"[2]; patient RP13 (Taxotere), iCTC control 75, 300 uM monolaurin",0
same,number of live iCTCs remaining after treatment,"[2]; patient RP15 (Taxotere), iCTC control 50, 100 uM monolaurin",20
same,number of live iCTCs remaining after treatment,"[2]; patient RP15 (Taxotere), iCTC control 50, 200 uM monolaurin",10
same,number of live iCTCs remaining after treatment,"[2]; patient RP15 (Taxotere), iCTC control 50, 300 uM monolaurin",0
same,number of live iCTCs remaining after treatment,"[2]; patient RP19 (Taxotere), iCTC control 425, 100 uM monolaurin",50
same,number of live iCTCs remaining after treatment,"[2]; patient RP19 (Taxotere), iCTC control 425, 200 uM monolaurin",50
same,number of live iCTCs remaining after treatment,"[2]; patient RP19 (Taxotere), iCTC control 425, 300 uM monolaurin",0
same,number of live iCTCs remaining after treatment,"[2]; patient RP20 (Taxotere), iCTC control 50, 100 uM monolaurin",20
same,number of live iCTCs remaining after treatment,"[2]; patient RP20 (Taxotere), iCTC control 50, 200 uM monolaurin",10
same,number of live iCTCs remaining after treatment,"[2]; patient RP20 (Taxotere), iCTC control 50, 300 uM monolaurin",5
same,number of live iCTCs remaining after treatment,"[2]; patient RP212 (Taxotere), iCTC control 55, 100 uM monolaurin",30
same,number of live iCTCs remaining after treatment,"[2]; patient RP212 (Taxotere), iCTC control 55, 200 uM monolaurin",10
same,number of live iCTCs remaining after treatment,"[2]; patient RP212 (Taxotere), iCTC control 55, 300 uM monolaurin",10
same,number of live iCTCs remaining after treatment,"[2]; patient Rp05 (Taxotere), iCTC control 20, 100 uM monolaurin",15
same,number of live iCTCs remaining after treatment,"[2]; patient Rp05 (Taxotere), iCTC control 20, 200 uM monolaurin",0
same,number of live iCTCs remaining after treatment,"[2]; patient Rp05 (Taxotere), iCTC control 20, 300 uM monolaurin",0
same,stock solution stable for,[3],2 weeks
